One data set relates to CEM cells. The data set can be described thus: Cell proliferation and toxicity assay. The format is cell-based. As for the experimental part:
Cell proliferation and toxicity assay: Approximately 3.8×10^5 CEM cells for each peptide concentration were incubated for 3 days at 37° C. in T25 flasks. Peptides tested were DP178 (SEQ ID:1) and DP-116 (SEQ ID:9), as described in FIG. 1. Peptides were synthesized as described, above, in Section 6.1. The concentrations of each peptide used were 0, 2.5, 10, and 40 μg/ml. Cell counts were taken at incubation times of 0, 24, 48, and 72 hours.

Data set [1] has as its target viral gp41 of HIV-1 (HIV-1IIIB) (HIV-1 IIIB) (UniProt P03377). The data set can be described thus: cell-based or functional assay.
The test system of a further data set is HIV-1/IIIb. The data set can be described thus: Anti-HIV assays of DP107 and DP178 truncations and mutations. The format is cell-based. The conditions noted are these: FIGS. 49, 50. The text has this: Anti-HIV assays: The antiviral assays performed were as those described, above, in Section 6.1. Assays utilized HIV-1/IIIb and/or HIV-2 NIHZ isolates. Purified peptides were used, unless otherwise noted in FIGS. 49A-L.

For data set [2], the system named is HIV-1LAI. The conditions noted are these: Wild et al. 1992; cited from earlier work.
The test system of data set [3] is HIV-1LAI. The data set can be described thus: Cell free virus infection assay (CEM CD4+ cells, reverse transcriptase readout). The conditions noted are these: FIG. 1 legend. In kind it is cell-based. On the procedure: (§1) Synthetic peptides were incubated at 37° C. with either 247 TCID50 (for experiment depicted in FIG. 2), or 62 TCID50 (for experiment depicted in FIG. 3) units of HIV-1LAI virus or 25 TCID50 units of HIV-2NIHZ and CEM CD4+ cells at peptide concentrations of 0, 0.04, 0.4, 4.0, and 40 μg/ml for 7 days. The resulting reverse transcriptase (RT) activity in counts per minute was determined using the assay described, below, in Section 6.1.5. See, Reed, L. J. et al., 1938, Am. J. Hyg. 27: 493-497 for an explanation of TCID50 calculations.
(§2) The micro-reverse transcriptase (RT) assay was adapted from Goff et al. (Goff, S. et al., 1981, J. Virol. 38:239-248) and Willey et al. (Willey, R. et al., 1988, J. Virol. 62:139-147). Supernatants from virus/cell cultures are adjusted to 1% Triton-X100. A 10 μl sample of supernatant was added to 50 μl of RT cocktail in a 96-well U-bottom microtitre plate and the samples incubated at 37° C. for 90 min. The RT cocktail contained 75 mM KCl, 2 mM dithiothreitol, 5 mM MgCl2, 5 μg/ml poly A (Pharmacia, cat. No. 27-4110-01), 0.25 units/ml oligo dT (Pharmacia, cat. No. 27-7858-01), 0.05% NP40, 50 mM Tris-HCl, pH 7.8, 0.5 μM non-radioactive dTTP, and 10 μCi/ml ^32P-dTTP (Amersham, cat. No. PB.10167). […]

Another data set relates to HIV-2. The data set can be described thus: Cell fusion assay: HIV-2 mediated syncytia formation. The format is cell-based. The following applies: failed to block at highest concentration; FIG. 5.
The test system of another data set is HIV-1IIIB. The format is cell-based. The following applies: 10 nM peptide. As for the experimental part:
CEM cells (7×10^4) were incubated with HIV-1IIIB chronically infected CEM cells (10^4) in 96-well flat-bottomed half-area plates (Costar) in 100 μl culture medium. Peptide and fusion proteins at various concentrations in 10 μl culture medium were incubated with the cell mixtures at 37° C. for 24 hours. Multinucleated syncytia were estimated with microscopic examination.

In the next data set the test system is Fab-d. The data set can be described thus: ELISA analysis of DP178 binding to the leucine zipper motif of gp41 (Fab-d ELISA). The conditions noted are these: FIG. 10. The arrangement: species or system human.
For a further data set, the system named is HIV-2NIHZ. The data set can be described thus: Cell free virus infection assay (CEM CD4+ cells, reverse transcriptase readout). The format is cell-based. As for the experimental part:
as §1, §2

“Also recorded” adds a separate entry of the source. Like-named read-outs stand apart in the source and are kept apart here. Peptide text beside a SMILES is read from it.

Protocol for Fab-d: Each well was washed three times with distilled water then blocked with 3% bovine serum albumin (BSA) for 2 hours. After blocking, peptides with 0.5% BSA in TBST (40 mM Tris-HCl pH7.5, 150 mM NaCl, 0.05% Tween 20) were added to the ELISA plates and incubated at room temperature for 1 hour. After washing three times with TBST, Fab-d was added at a concentration of 10 ng/ml with 0.5% BSA in TBST. The plates were washed three times with TBST after incubation at room temperature for 1 hour. Horse radish peroxidase (HRP) conjugated goat antihuman Fab antiserum at a 2000 fold dilution in TBST with 0.5% BSA was added to each well and incubated at room temperature for 45 minutes. The plates were then washed four times with TBST. The peroxidase substrate o-phenylene diamine (2.5 mg/ml) and 0.15% H2O2 were added to develop the color. The reaction was stopped with an equal volume of 4.5 N H2SO4 after incubation at room temperature for 10 minutes. The optical density of the stopped reaction mixture was measured with a micro plate reader (Molecular Design) at 490 nm.

enfuvirtide: in the data set on CEM cells (40 μg/ml vs HIV inhibitory dose), the “non-cytotoxic concentration relative to HIV inhibitory dose” value is “greater than 3 log”. In the data set with CEM cells (up to highest peptide concentration tested, 40 μg/ml, CEM cells, 3 days), the “cytotoxic effects on cells in culture (in words)” value is “not toxic to cells; also recorded: non-cytotoxic; also recorded: no cytotoxic effects”.

In [1], “M41, maltose binding protein fusion with the extracellular domain of gp41 (540-686) (from UniProt P03377 540-686)” registered a Cell fusion (IC90) of more than 50000 nM and an HIV infectivity (IC90) of more than 16000 nM.

Take “T-381: SEQ ID NO. 164; DP178 truncation/mutation peptide (RMKQLEDKVEELLSKNYHLENELELDKWASLWNWF)”: the “anti-HIV antiviral activity (in words)” value in the data set on HIV-1/IIIb is “high level of antiviral activity”.

For `CC[C@H](C)[C@H](NC(=O)[C@H](CCCNC(=N)N)NC(=O)[C@H](C)NC(=O)[C@H](CCC(N)=O)NC(=O)[C@H](CC(C)C)NC(C)=O)C(=O)N[C@@H](CC(C)C)C(=O)N[C@@H](C)C(=O)N[C@H](C(=O)N[C@@H](CCC(=O)O)C(=O)N[C@@H](CCCNC(=N)N)C(=O)N[C@@H](Cc1ccc(O)cc1)C(=O)N[C@@H](CC(C)C)C(=O)N[C@@H](CCCCN)C(=O)N[C@@H](CC(=O)O)C(=O)N[C@@H](CCC(N)=O)C(=O)N[C@@H](CCC(N)=O)C(=O)N[C@@H](CCC(N)=O)C(N)=O)C(C)C` [DP-116] (Ac-LQARILAVERYLKDQQQ-NH2), the “activity in cell-free HIV-1 infection assay, previously shown (in words)” value in the data set with HIV-1LAI [2] is “inactive; also recorded: ineffective as a HIV inhibitor”. Further, the “inhibition of HIV-1 cell free virus infection (in words)” value in the data set with HIV-1LAI [3] is on record as “negative for inhibition of HIV-1 infection”.

In [1], “DP178 (SEQ ID NO:1), synthetic peptide corresponding to amino acids 638 to 673 of HIV-1LAI gp41” came in with a Cell fusion (IC90) of 1 nM and an HIV infectivity (IC90) of 80 nM.

“T-377: SEQ ID NO. 167; DP178 truncation/mutation peptide (CLELDKWASLANWFC)”: in the data set on HIV-1/IIIb, the “anti-HIV antiviral activity (in words)” value is “high level of antiviral activity”.

For the molecule Enfuvirtide, the “concentration affording complete protection against syncytia formation (lowest concentration tested)” value is not above 12.5 ng/mL in the data set on HIV-1 (HIV-1LAI, FIG. 4) and not above 100 ng/mL in the data set on HIV-1 (HIV-1MN, HIV-1RF, HIV-1SF2, FIG. 4). Also, in the data set on HIV-1 (HIV-1 mediated cell-cell fusion), the “concentration completely blocking virus induced syncytia formation (lowest effective inhibitory concentration)” value fell in the range of 1 to 10 ng/mL. The “selectivity as inhibitor of HIV-1-mediated over HIV-2-mediated cell fusion” value in the data set on HIV-1 (HIV-1 vs HIV-2) came to 4 log. The “peptide concentration blocking HIV-1-mediated syncytia formation” value in the data set on HIV-1 (HIV-1 vs HIV-2 comparison, FIG. 5) is listed as “below 1 ng/ml”. In addition, the “peptide concentration blocking HIV-2 mediated syncytia formation” value in the data set with HIV-2 is more than 10 µg/mL. Further, in the data set with HIV-1IIIB, the “syncytia in the presence of peptide (in words)” value is reported as “no observable syncytia”. Further, in the data set with Fab-d, the “Fab-d binding (in words)” value was “failed to bind”. Besides, the “IC50 for HIV-2NIHZ (in words)” value in the data set with HIV-2NIHZ (25 TCID50 HIV-2NIHZ, CEM cells, 7 days, FIG. 3) is listed as “much higher IC50”. For the same molecule, the “potency as HIV-1 inhibitor relative to HIV-2 inhibitor” value with HIV-2NIHZ (HIV-1LAI vs HIV-2NIHZ cell-free infection) is “two logs more potent”.

Turning to “T-378: SEQ ID NO. 168; DP178 truncation/mutation peptide (CLELDKWASLWNFFC)”, in the data set with HIV-1/IIIb, the “anti-HIV antiviral activity (in words)” value is “high level of antiviral activity”.

On to “H-YTNTIYTLLEESQNQQEKNEQELLELDKWASLWNWF-OH [DP-185]”, for which the “HIV-1-mediated syncytia formation (in words)” value with HIV-1 is “block HIV-1-mediated syncytia formation”. Besides, the “concentration with inhibitory activity on HIV-1-induced syncytia formation” value with HIV-1 (lowest concentration tested, FIG. 4) was not above 312.5 ng/mL.

Turning to “T-590: SEQ ID NO. 167; DP178 truncation/mutation peptide (CLELDKWASLANWFC)”, the “anti-HIV antiviral activity (in words)” value in the data set with HIV-1/IIIb is reported as “high level of antiviral activity”.

Regarding “T-677: SEQ ID NO. 165; DP178 truncation/mutation peptide (FWNWLSAWKDLELYPGSLELDKWASLWNWF)”, the “anti-HIV antiviral activity (in words)” value in the data set on HIV-1/IIIb is “high level of antiviral activity”.

On to “DP107 (SEQ ID NO: 89), synthetic peptide corresponding to amino acids 558 to 595 of HIV-1LAI gp41”, for which, in data set [1], the Cell fusion (IC90) was 1000 nM and the HIV infectivity (IC90) was determined as 1000 nM.

Turning to “T-591: SEQ ID NO. 168; DP178 truncation/mutation peptide (CLELDKWASLWNFFC)”, the “anti-HIV antiviral activity (in words)” value in the data set with HIV-1/IIIb is listed as “high level of antiviral activity”.

For the molecule “T-235: SEQ ID NO. 162; DP178 truncation/mutation peptide (RMKQLEDKVEELLSKLELDKWASLWNWF)”, the “anti-HIV antiviral activity (in words)” value in the data set on HIV-1/IIIb is “high level of antiviral activity”.

In the case of “T-611: SEQ ID NO. 175; DP178 truncation/mutation peptide (LKLDKWASLWNWF)”, the “anti-HIV antiviral activity (in words)” value with HIV-1/IIIb is “high level of antiviral activity”.

These data come from patent publication US7273614B2 (priority 1993, dated 2007).
